{
  "source": "patent US12502379B2",
  "about": "“Ponesimod for avoiding worsening of fatigue-related symptoms in multiple sclerosis patients” (Vanda Pharmaceuticals Inc., priority 2019, dated 2025)",
  "key": {"[1]": {"system": "adult subjects with relapsing MS", "test": "FSIQ-RMS weekly symptoms score, change from baseline to Week 108", "format": "in vivo, human", "text": "In some embodiments, the patient-reported outcome questionnaire is the Fatigue Symptoms and Impact Questionnaire—Relapsing Multiple Sclerosis (FSIQ-RMS) (available from Mapi Research Trust). The FSIQ-RMS is an MS specific 20-item PRO measure that comprises 2 domains: one measuring MS symptoms and one measuring MS-related impacts. See Hudgens S, et al., Development and Validation of the FSIQ-RMS: A New Patient-Reported Questionnaire to Assess Symptoms and Impacts of Fatigue in Relapsing Multiple Sclerosis. Value Health. 2019 April; 22 (4): 453-466. doi: 10.1016/j.jval.2018.11.007. Epub 2019 Feb. 21. PubMed PMID: 30975397. With 7 symptom items and 13 impact items (in 3 impacts subdomains: physical, cognitive and emotional, and coping), the FSIQ-RMS is a comprehensive, valid, and reliable measure of fatigue-related symptoms and impacts in RMS patients. FIG. 2B depicts a conceptual framework for the FSIQ-RMS.\n(§1) In some embodiments, the patient-reported outcome questionnaire is the symptom domain of the FSIQ-RMS. The FSIQ-RMS symptom domain (FSIQ-RMS-S) consists of seven items assessing fatigue-related symptoms with a recall period of 24 hours measured on an 11-point numeric rating scale; the standardized symptom domain score ranges from 0 to 100 with a higher score indicating greater fatigue. This domain (i.e., section 1 of the questionnaire) is completed on 7 consecutive days.\nThe patient-reported outcome questionnaire used for the below Examples is the Fatigue Symptoms and Impact Questionnaire-Relapsing Multiple Sclerosis (FSIQ-RMS). The FSIQ-RMS is an MS specific 20-item PRO measure that comprises 2 domains: one measuring MS symptoms (7 items) and one measuring MS-related impacts (13 items). The 7 symptom items and 13 impact items (in 3 impacts subdomains: physical, cognitive and emotional, and coping) are presented below.\nFor the MS symptoms domain, the FSIQ-RMS asks about a patient's fatigue-related symptoms of relapsing MS over the past 24 hours while doing routine daily activities (e.g., housework, yard work, shopping, working, etc.) for Items 1-6 or while at rest (e.g., reading a book, watching TV, etc.) for Item 7. Patients are asked to select a response on a scale of Oto 10 that best describes their experience and are asked to not skip any questions, with no answers being right or wrong.\nSecondary efficacy variables and testing strategy: Four secondary efficacy endpoints were analyzed as per the statistical testing strategy outlined in FIG. 1. • Change from baseline to Week 108 in fatigue-related symptoms as measured by the symptoms domain of the FSIQ-RMS patient-reported outcome [Fatigue] • Cumulative number of combined unique active lesions from baseline to Week 108 on brain MRI [CUALs] • Time to first 12-week confirmed disability accumulation (CDA) from baseline to EOS on Expanded Disability Status Scale (EDSS) [12-week CDA] • Time to first 24-week CDA from baseline to EOS on EDSS [24-week CDA]\nas §1, with “The” for “In some embodiments, the patient-reported outcome questionnaire is the symptom domain of the FSIQ-RMS. The”\nFSIQ-RMS was completed during the pre-randomization period, at Visits 6, 7, 10, and 12 (Weeks 12, 24, 60, 84), 14 (EOT), and at unscheduled visits due to relapses (R1, R2, etc.) or other unscheduled visits (U1, U2, etc.) as described below. If applicable, FSIQ-RMS was performed at the corresponding visits in the PTOP.\nThe completion of the FSIQ-RMS during the pre-randomization period was done as follows: At Visit 1 (Screening), subjects who appear eligible based on the assessments made during this visit (but prior to the results from the laboratory assessments are received) were provided with the electronic device containing the FSIQ-RMS. […]"}, "[2]": {"test": "Reasons for premature treatment discontinuation", "format": "in vivo", "procedure": "A total of 1468 subjects were screened. Of those, 1133 subjects were randomized (567 to ponesimod 20 mg and 566 to teriflunomide 14 mg) across 162 sites in 28 countries, and 1131 subjects received at least one dose of study drug. The disposition of subjects is summarized in Table 1 and a summary of reasons (primary reason) for treatment discontinuation are shown in Table 2. Overall treatment and study discontinuation were balanced across both treatment arms. A total of 6.5% and 2.5% of the subjects discontinued due to AEs or tolerability related reasons in ponesimod 20 mg and teriflunomide 14 mg, respectively, while 1.9% and 4.3% discontinued due to efficacy related reasons. There were 2 deaths reported during the study—both on teriflunomide 14 mg."}, "[3]": {"settings": "patients with no prior DMT treatment within about two years, FSIQ-RMS weekly symptoms score"}, "[4]": {"settings": "patients without Gd+T1 lesions at baseline, FSIQ-RMS weekly symptoms score"}},
  "data": [
    {"compound": "CCC/N=C1\\S/C(=C\\c2ccc(OC[C@H](O)CO)c(Cl)c2)C(=O)N1c1ccccc1C", "note": "[Ponesimod, (R)-5-[3-chloro-4-(2,3-dihydroxy-propoxy)-benz[Z]ylidene]-2-([Z]-propylimino)-3-o-tolyl-thiazolidin-4-one]", "values": [
      {"measurement": "Change from baseline to Week 108 in FSIQ-RMS weekly symptoms score (mean)", "setting": "[1]; MMRM, Full Analysis Set, increase = worsening, ponesimod 20 mg, teriflunomide 14 mg", "result": "−0.01"},
      {"measurement": "Change From Baseline to Week 108: Stable or Improved", "setting": "[1]; patients with baseline fatigue below the median, FSIQ-RMS weekly symptoms score", "result": "~65", "unit": "%"},
      {"measurement": "Change From Baseline to Week 108: Stable (−6.3 < x < +6.3)", "setting": "[1]; [3]", "result": 44.0, "unit": "%"},
      {"measurement": "Change From Baseline to Week 108: Stable or Improved", "setting": "[1]; [3]", "result": "about 75%"},
      {"measurement": "Change From Baseline to Week 108: Improved (<−6.3)", "setting": "[1]; [4]", "result": 30.0, "unit": "%"},
      {"measurement": "Change From Baseline to Week 108: Stable or Improved", "setting": "[1]; [4]", "result": "about 68%"},
      {"measurement": "Premature treatment discontinuation: Death", "setting": "[2]; Safety Set, ponesimod 20 mg N = 565, teriflunomide 14 mg N = 566", "result": 0, "unit": "n"},
      {"measurement": "Subjects who discontinued due to AEs or tolerability related reasons", "setting": "[2]; ponesimod 20 mg, teriflunomide 14 mg", "result": 6.5, "unit": "%"}
    ]}
  ]
}
